The values that follow come from publication PMC7259601 (PLoS ONE, 2020).

Test [1] relates to SAMP8 mice. Kind of test: Novel Object Recognition Test (NORT). It is filed as in vivo, mouse. Here is the method: Both male and female mice from the senescence accelerated strain SAMP8 and its control SAMR1 of different ages (see Table S3 for details) were used in these studies. Mice were breed in the animal facilities of the Pharmacy Faculty (University of Barcelona), maintained in a at 22 ± 2 °C controlled temperature in a 12 hr light / dark cycle (lights on at 8:00 am; 300 lux/0 lux) with ad libitum access to food (2018 TEKLAD, Harlan) and water. Male mice were housed individually (males) or in groups of 4-5 animals (females) in plastic colony boxes with a sawdust bedding material. […] SAMR1 mice treated with vehicle were included as a control. All drugs were administered via drinking water and diluted in vehicle. Drug concentration was calculated weekly in function of body weight and corrected in function of drinking water consumption. Cognitive function was evaluated by NORT, social behavior was evaluated by RI and anxiety and motor function were evaluated by EPM and OF. When necessary, animals were deeply anesthetized (80 mg/kg sodium pentobarbital) and brain samples (hippocampus, (prefrontal) cortex) were micro-dissected and processed according to the downstream analysis.
The protocol was performed as previously described. Briefly, animals were placed in a 90°- two-arm maze. Mice were habituated to the apparatus for 10 min during 3 consecutive days. On day 4, two identical novel objects (A+A or B+B) were placed at the end of each arm and animals performed a 10-min acquisition trial. A 10-min retention trial was carried out 2 hr after the acquisition trial with object A and B. Time exploring the novel (NO) and the familiar object (FO) was measured and a discrimination Index (DI) was defined as (NO-FO)/(NO+FO). In some experiments, a more restrictive threshold was applied and animals exploring less than 5 sec (NO+FO) were excluded from the analysis (Table S3).
Novel Object Recognition Test (NORT): Time exploring the novel (NO) and the familiar object (FO) was measured and a discrimination Index (DI) was defined as (NO-FO)/(NO+FO). In some experiments, a more restrictive threshold was applied and animals exploring less that 5 sec (NO+FO) were excluded from the analysis (Table S3). Open Field (OF): Locomotor activity was analyzed by video-tracking over the captured images using SMART® (v 2.5.21 (rat) or v3.0 (mice), PanLab, SLU, Spain).

Test [2] addresses T1, MAO-A (Mus musculus, UniProt Q64133).
T1 construct: from tissue; host or cells: mouse brain (homogenate ex vivo; living animal in the L-5-HTP test)
T1 sequence (Q64133 1-526): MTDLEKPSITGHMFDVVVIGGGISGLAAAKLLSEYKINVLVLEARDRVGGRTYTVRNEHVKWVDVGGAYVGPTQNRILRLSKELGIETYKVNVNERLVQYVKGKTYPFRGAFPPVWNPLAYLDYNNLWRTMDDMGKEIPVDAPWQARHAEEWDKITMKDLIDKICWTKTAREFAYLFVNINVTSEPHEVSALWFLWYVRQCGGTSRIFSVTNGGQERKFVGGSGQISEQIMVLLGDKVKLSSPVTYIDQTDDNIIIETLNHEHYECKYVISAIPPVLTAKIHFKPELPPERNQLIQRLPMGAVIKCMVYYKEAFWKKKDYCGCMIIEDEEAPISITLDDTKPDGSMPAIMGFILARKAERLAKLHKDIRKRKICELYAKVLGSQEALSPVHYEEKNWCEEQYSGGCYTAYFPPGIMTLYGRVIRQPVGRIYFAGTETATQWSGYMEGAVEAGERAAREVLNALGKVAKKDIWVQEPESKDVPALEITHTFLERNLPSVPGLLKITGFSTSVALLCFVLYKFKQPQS
Kind of test: L-5-HTP-induced symptoms test. The format is in vivo, CD1 mice. The settings on record: mouse; p.o. gavage, followed by 100 mg/kg L-5-HTP i.p.; read-out: ED50 potentiation of L-5-HTP-induced symptoms. Here is the method:
Male C57BL/6 mice (8 weeks of age, 25-30 g) procured from Harlan Interfauna Iberica were housed in the same condition that in MAO-B PEA section. This test was performed essentially as previously described. Test compound was administered p.o. at several dose levels to groups of mice (N = 10/dose) 60 min before an i.p. injection of L-5-HTP (100 mg/kg). This dose of 5-L-HTP produced no effects in control animals. […] Studies were performed in accordance with the institutional guidelines for the care and use of laboratory animals (European Communities Council Directive 86/609/EEC) established by the Ethical Committee for Animal Experimentation at the PRAAL-PCB.
This test was performed essentially as previously described [90](Koe et al., 1983). Test compound was administered p.o. at several dose levels 60 min before an i.p. injection of L-5-HTP. […] One score assigned to each symptom observed per animal, giving a maximal obtainable score of 30 per group of 10 mice.
Behavior was rated as outline above.

Test [3] deals with T2, Mouse recombinant SMOX (Mus musculus, UniProt Q99K82).
T2 construct: gift: Paolo Mariottini, Department of Biology, University of Roma
T2 sequence (Q99K82 whole entry): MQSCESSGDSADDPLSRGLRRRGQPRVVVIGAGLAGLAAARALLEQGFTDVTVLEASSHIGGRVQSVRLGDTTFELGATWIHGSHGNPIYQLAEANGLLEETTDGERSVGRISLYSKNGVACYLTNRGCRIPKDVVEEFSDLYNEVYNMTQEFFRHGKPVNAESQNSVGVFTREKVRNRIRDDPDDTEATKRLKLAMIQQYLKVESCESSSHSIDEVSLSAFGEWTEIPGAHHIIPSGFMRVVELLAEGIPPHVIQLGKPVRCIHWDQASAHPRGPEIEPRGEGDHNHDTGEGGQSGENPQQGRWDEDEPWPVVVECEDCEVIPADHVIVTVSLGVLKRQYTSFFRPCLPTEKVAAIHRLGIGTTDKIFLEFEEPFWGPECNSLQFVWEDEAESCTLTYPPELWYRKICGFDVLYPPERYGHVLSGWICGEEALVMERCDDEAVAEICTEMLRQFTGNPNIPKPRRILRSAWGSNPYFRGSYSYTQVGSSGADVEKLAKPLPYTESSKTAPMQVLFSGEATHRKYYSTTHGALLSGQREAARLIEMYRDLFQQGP
Kind of test: SMOX inhibition assay. The format is biochemical. How it is done:
Mouse recombinant SMOX [4] was provided by Paolo Mariottini (Department of Biology, University of Roma). The biochemical activity was measured by its ability to oxidize spermine (specific substrate for SMOX) and produce H2O2 using a horseradish peroxidase coupled assay. The assay buffer for the mSMOX reaction was 100 mM Sodium Phosphate pH 8.0. The inhibition was monitored during 10 min in the presence of KM spermine peptide.

The structures appear in SMILES notation.

In general, ED50 refers to the dose that gives a 50% effect, or the effect in half of the subjects. Broadly, the inhibition is the change of the read-out against control, counted positive when it falls. For the molecule `Nc1nnc(CN[C@@H]2C[C@H]2c2ccc(OCc3ccccc3)cc2)o1` [ORY-2001, vafidemstat], the NORT discrimination capacity entry in test [1] (0.32 and 0.96 mg/kg/day (Exp3, Exp4)) is listed as “completely restored the discrimination capacity”. The “NORT discrimination capacity, short treatment” value in test [1] (5 day treatment at 0.96 mg/kg/day (Exp5)) is listed as “equally effective as a one month treatment”. For the same molecule, the “NORT performance of aged SAMP8 mice” value in test [1] (eight month old, treated 4 months (Exp7)) is listed as “fully rescued the performance”. Moreover, in test [1] (lowest dose (0.11 mg/kg/day)), the “rescue of NORT discrimination deficit” value was ~ 50%. Also, the ED50 in test [2] stood at 20.5 mg/kg. Besides, in test [3], the inhibition at 10 µM is 31%.
